The results in this text go back to patent US20230263757A1, “DISINFECTING WIPE KIT FOR CENTRAL VENOUS ACCESS DEVICES” (SterileCare Inc., priority 2022, published 2023).

Structures can show the parent of a compound that is named as a salt.

The test deals with all test organisms. The experiment in a line: MIC, micro broth dilution (summary in text). The test is classed as cell-based. The note with it: planktonic cells, read-out: MICs ranging over all test organisms. As for the experimental part:
An assay was made using a minimum inhibitory concentration (MIC) and minimum bactericidal concentration (MBC) and minimum fungicidal concentration (MFC) determination. The MIC was determined by the micro broth dilution method in 96-well plates. […] A 10 μL containing 1×10^5 bacterial cells or 2×10^3 fungal cells were added to each well. The inoculated plates were covered with a lid, sealed with Parafilm, and incubated for 24 h at 37° C. with slight rocking on a tilting platform shaker. After incubation, the optical density at 600 nm (OD 600) of the cultures in each well was measured using an xMark™ Microplate Absorbance Spectrophotometer (Bio-Rad). The MIC was defined as the lowest concentration of antimicrobial compound at which the culture OD600 values were similar to uninoculated control wells. MBCs and MFCs were determined by transferring 100 μL from each well with no apparent growth onto appropriate agar plates, followed by incubation for 24 h at 37° C.
In general terms: Broth dilution looks for growth in wells or tubes with falling amounts of substance.

`[H]/N=C(\N/C(=N/[H])NCCCCCCNC(=N)NC(=N)Nc1ccc(Cl)cc1)Nc1ccc(Cl)cc1` [Chlorhexidine HCl, 1,6-bis(4′-chlorophenylbiguanide) hexane]: the MIC was in the range of 0.1 to 50 µg/mL.
